Data as given in patent publication US20240327423A1, “A SERIES OF PYRROLE DERIVATIVES AND THEIR PREPARATION METHOD AND THERAPEUTIC USE” (SHENZHEN SUNGENING BIO-MEDICAL CO., LTD, priority 2020, published 2024).

Test system: Aspergillus fumigatus ATCCMYA-4690 (AF293)
Assay: Survival rate experiment II of mouse bloodstream infection model with Aspergillus fumigatus
Assay type: in vivo
Conditions: for day 7 survival rate: 3 mg/kg (bid) orally for 6 days, started 24 hours after infection; for survival time of mouses: oral, bid
Experimental: Test Case 6: Survival Rate Experiment II of Mouse Bloodstream Infection Model with Aspergillus fumigatus • Animal for experiment: male CD-1 mouse, 6-8 weeks old, 10 animals per group. • Induction of immunosuppression: the day of infection is defined as day 0, and mouses are injected intraperitoneally with corresponding doses of cyclophosphamide on day −4 (150 mg/kg), day −1 (100 mg/kg), and day 2 (100 mg/kg), respectively. • Microbial pathogen: Aspergillus fumigatus ATCCMYA-4690 (AF293). • Collection conditions of inoculum: culture on SDA culture plates, incubate at 25° C. for at least 7 days, collect with PBS+0.1% Tween 20, and count microscopically; • Inoculation level, route and volume: 3.90E+05 CFU/mouse, tail vein injection, injection volume of 100 μL/mouse; • Treatment: Treatment is started 24 hours after infection, and test compounds are dissolved in PEG400 (0.3 mg/mL), […] The administrated mouses are observed for 8 hours.

[1] = immunosuppressed male CD-1 mouse

SMILES	day 7 survival rate [1] [%]	survival rate (immunosuppressed male CD-1 mouse, 10 mg/kg (bid)) [%]	survival time of mouses [1]	dose dependence of survival (three doses of 1 mg/kg, 3 mg/kg and 10 mg/kg)
Cc1cc(-c2ccccc2)c(C(=O)C(=O)Nc2ccc3c(c2)C[C@H]2CN(c4ncc(F)cn4)CCN32)n1C [Example 33, (S)-2-(1,5-dimethyl-3-phenyl-1H-pyrrol-2-yl)-N-(2-(5-fluoropyrimidin-2-yl)-1,2,3,4,10,10a-hexahydropyrazino[1,2-a]indol-8-yl)-2-oxoacetamide]	30	80	prolong the survival time	dose-dependent relationship
Cc1cc(-c2ccccc2)c(C(=O)C(=O)Nc2ccc(N3CCN(c4ncc(F)cn4)CC3)cc2)n1C [Example F901318, reference compound]	0		prolong the survival time	
